Results taken from patent US8067424B2, “Selective inhibitors for cyclin-dependent kinases” (Emory University, priority 2007, dated 2011).
Read-outs that look alike come from different tables or passages of the source.

How the values were obtained:
MCF-7 tumors = assay: MCF-7 tumor growth in nude mice, BS-181 i.p.; format: in vivo, nu/nu-BALB/c athymic nude mice; settings: i.p. twice daily, 14 days
Description: This example illustrates that BS-181 is capable of inhibiting MCF-7 tumor growth in nude mice. The following protocol was used in these mouse xenograft experiments. Female, 7-week-old, nu/nu-BALB/c athymic nude mice were purchased from Harlan Olac Ltd. The animals were housed in isolated ventilator cages (IVC) in a 12-h light/dark cycle. The animals received sterilized water and sterile rodent food ad libitum. All procedures were approved by the CBS, Imperial College London Ethics Committee and were covered by a Government Home Office project license for these specific studies. Before inoculation of animal with cells, a 0.72 mg 17β Estradiol 60-day release pellet was implanted subcutaneously (Innovative Research of America, USA). For insertion, animals were anaesthetised, an incision was made to the flank of the animals under aseptic conditions and pellets were implanted. The wound was closed with stainless steel sutures. MCF-7 cells (5×10^6 cells) were injected subcutaneously in not more than 0.1 ml volume into the flank of the animals. Tumor measurements were performed twice per week, and volumes were calculated using the formula ½ [length (mm)]×[width (mm)]^2. […] Throughout the 14-day treatment period animal weights were determined each day and tumor volume every 48 hours.

CAMKKα = CAMKKα (Homo sapiens, UniProt Q8N5S9); assay: Kinase screen: CAMKKa assay; format: biochemical; settings: read-out: Mean Remaining Enzyme Activity (%)
Procedure: Generally, the same procedure was used for all assays. Since the total assay volume was 25.5 microliters, 0.5 microliters of inhibitors at 51× assay concentration were added to the plates before any other addition.
The basic procedure was to add 0.5 microliters inhibitor/control in DMSO to plate. Fifteen microliters of enzyme/substrate/buffer mix were added and incubated for 5 min. Ten microliters MgATP at the relevant concentration were added and incubated for 30 min. The assay was stopped by adding 5 microliters of 3% orthophosphoric acid. The assay was transferred to a p81 filter plate and read in a scintillation counter of 30 sec/well. Note that this assay procedure was not followed for MKK1, which instead involved a two-step assay, and PKC alpha, which required the addition of lipid vesicles.
CAMKKa assay: 5-20 mU of CAMKKa (diluted in 50 mM Tris (pH 7.5), 0.1 mM EGTA, 1 mg/ml BSA, 0.1%, b-Mercaptoethanol) was assayed against substrate peptide ([…]) (SEQ ID NO: 31) in a final volume of 25.5 μl containing 50 mM Tris (pH 7.5), 0.1 mM EGTA, 0.5 mM CaCl2, 0.3 μM calmodulin, 0.1%, b-Mercaptoethanol, 300 μM substrate peptide, 10 mM magnesium acetate and 0.02 mM [33P-g-ATP] (500-1000 cpm/pmole) and incubated for 30 mins at room temperature. Assays were stopped by addition of 5 μl of 0.5M (3%) orthophosphoric acid. […]

MCF7 = assay: cells; settings: Homo sapiens
UO-31 = assay: cells; settings: Homo sapiens
K-562 [1] = assay: cells; settings: Homo sapiens
RPMI-8226 [2] = test system: RPMI-8226
A549/ATCC = settings: for Mean Optical Densities / Percent Growth: A549/ATCC
K-562 [3] = test system: K-562
RXF 393 = assay: cells; settings: Homo sapiens
RPMI-8226 [4] = assay: cells; settings: Homo sapiens
SR = assay: cells; settings: Homo sapiens
HT29 = assay: cells; settings: Homo sapiens
[5] = RPMI-8226, log10 concentration −4.0
[6] = RPMI-8226, log10 concentration −5.0
[7] = RPMI-8226, log10 concentration −6.0
[8] = RPMI-8226, log10 concentration −7.0
[9] = RPMI-8226, log10 concentration −8.0
[10] = K-562, log10 concentration −4.0
[11] = K-562, log10 concentration −5.0
[12] = K-562, log10 concentration −6.0
[13] = K-562, log10 concentration −7.0
[14] = K-562, log10 concentration −8.0

CC(C)c1cnn2c(NCc3ccccc3)cc(NCCCCCCCN)nc12 [BS-181]
Change in animal weight (MCF-7 tumors): nearly constant | Increase in tumor volume relative to day one (MCF-7 tumors; different doses): increased more slowly with increasing dosage | remaining activity at 10 µM (CAMKKα): 57%

CC(C)c1cnn2c(NCc3ccccc3)cc(N[C@@H](CO)[C@H](O)CO)nc12 [ICEC0318, (3S)-3-(7-(Benzylamino)-3-isopropylpyrazolo[1,5-a]pyrimidin-5-ylamino)butane-1,2,4-triol]
GI50 (MCF7; MCF7): 221 nM | CC50 (MCF7; MCF7, read-out: LC50): > 100000 nM | GI50 (UO-31; UO-31): 289 nM | CC50 (UO-31; UO-31, read-out: LC50): > 100000 nM | TGI (M14; M14 (Melanoma)): 1.00E−6 | Mean Optical Densities (M14; M14, log10 concentration −4.0): 0.125 | Percent Growth (M14; M14, log10 concentration −4.0): −62% | Mean Optical Densities (M14; M14, log10 concentration −5.0): 0.246 | Percent Growth (M14; M14, log10 concentration −5.0): −26% | Mean Optical Densities (M14; M14, log10 concentration −6.0): 0.333 | Mean Optical Densities (M14; M14, log10 concentration −7.0): 1.032 | Percent Growth (M14; M14, log10 concentration −7.0): 97% | Mean Optical Densities (M14; M14, log10 concentration −8.0): 1.074 | Percent Growth (M14; M14, log10 concentration −8.0): 103% | GI50 (K-562 [1]; K562): 288 nM | CC50 (K-562 [1]; K562, read-out: LC50): > 100000 nM | TGI (RPMI-8226 [2]; RPMI-8226 (Leukemia)): >1.00E−4 | Mean Optical Densities (RPMI-8226 [2]; [5]): 0.249 | Percent Growth (RPMI-8226 [2]; [5]): 7% | Mean Optical Densities (RPMI-8226 [2]; [6]): 0.302 | Percent Growth (RPMI-8226 [2]; [6]): 18% | Mean Optical Densities (RPMI-8226 [2]; [7]): 0.311 | Percent Growth (RPMI-8226 [2]; [7]): 19% | Mean Optical Densities (RPMI-8226 [2]; [8]): 0.556 | Percent Growth (RPMI-8226 [2]; [8]): 67% | Mean Optical Densities (RPMI-8226 [2]; [9]): 0.595 | Percent Growth (RPMI-8226 [2]; [9]): 75% | TGI (A549/ATCC; A549/ATCC (Non-Small Cell Lung Cancer)): >1.00E−4 | Mean Optical Densities (A549/ATCC; log10 concentration −4.0): 0.346 | Percent Growth (A549/ATCC; log10 concentration −4.0): 4% | Mean Optical Densities (A549/ATCC; log10 concentration −5.0): 0.417 | Percent Growth (A549/ATCC; log10 concentration −5.0): 10% | Mean Optical Densities (A549/ATCC; log10 concentration −6.0): 0.422 | Percent Growth (A549/ATCC; log10 concentration −6.0): 11% | Mean Optical Densities (A549/ATCC; log10 concentration −7.0): 1.369 | Percent Growth (A549/ATCC; log10 concentration −7.0): 94% | Mean Optical Densities (A549/ATCC; log10 concentration −8.0): 1.447 | Percent Growth (A549/ATCC; log10 concentration −8.0): 101% | TGI (K-562 [3]; K-562 (Leukemia)): >1.00E−4 | Mean Optical Densities (K-562 [3]; [10]): 0.341 | Percent Growth (K-562 [3]; [10]): 17% | Mean Optical Densities (K-562 [3]; [11]): 0.325 | Percent Growth (K-562 [3]; [11]): 15% | Mean Optical Densities (K-562 [3]; [12]): 0.334 | Percent Growth (K-562 [3]; [12]): 16% | Mean Optical Densities (K-562 [3]; [13]): 0.991 | Percent Growth (K-562 [3]; [13]): 79% | Mean Optical Densities (K-562 [3]; [14]): 1.064 | Percent Growth (K-562 [3]; [14]): 86% | GI50 (RXF 393; RXF 393): 213 nM | CC50 (RXF 393; RXF 393, read-out: LC50): 54600 nM | GI50 (RPMI-8226 [4]; RPMI-8226): 227 nM | CC50 (RPMI-8226 [4]; RPMI-8226, read-out: LC50): > 100000 nM | GI50 (SR): 75.8 nM | CC50 (SR; read-out: LC50): > 100000 nM | GI50 (HT29; HT-29): 336 nM | CC50 (HT29; HT-29, read-out: LC50): > 100000 nM
